Activity calls are given as the source filed them. The rule behind the calls is not given here.
Columns and labels:
CCRF-CEM [1] = assay: Cytotoxicity against human CCRF-CEM cells after 72 hrs by XTT assay; type: functional, cell-based
CCRF-CEM [2] = assay: Ratio of IC50 for human vinblastine-resistant CCRF-CEM cells to IC50 for human CCRF-CEM cells; type: functional
CCRF-CEM [3] = assay: Ratio of IC50 for human taxol-resistant CCRF-CEM cells to IC50 for human CCRF-CEM cells; type: functional
[4] = Cytotoxicity against human OECM1 cells after 72 hrs by alamar blue assay; type: functional, cell-based; details: OECM1, 72 h
CCRF-CEM [5] = assay: Cytotoxicity against human vinblastine-resistant CCRF-CEM cells after 72 hrs by XTT assay; type: functional, cell-based
[6] = Cytotoxicity against human U87 cells after 72 hrs by alamar blue assay; type: functional, cell-based, U-87MG ATCC; details: U-87 MG
CCRF-CEM [7] = assay: Cytotoxicity against human taxol-resistant CCRF-CEM cells after 72 hrs by XTT assay; type: functional, cell-based
[8] = Cytotoxicity against human H1299 cells after 72 hrs by alamar blue assay; type: functional, cell-based; details: NCI-H1299, 72 h
Nucleic Acid = assay: Induction of Escherichia coli pEGFP-N1 DNA interstrand cross-linking at 1 to 20 uM after 2 hrs using ethidium bromide staining by alkaline agarose gel shift assay; type: nucleic-acid assay
PC-3 = assay: Cytotoxicity against human PC3 cells after 72 hrs by alamar blue assay; type: functional, cell-based; details: PC-3, 72 h
MX1 [9] = assay: Cytotoxicity against human MX1 cells after 72 hrs by SRB assay; type: functional, cell-based; details: MX1, 72 h
HCT-116 = assay: Cytotoxicity against human HCT116 cells after 72 hrs by SRB assay; type: functional, cell-based; details: HCT-116, 72 h
MX1 [10] = assay: Antitumor activity against human MX1 cells xenografted in athymic nude mouse assessed as tumor suppression at 30 mg/kg, iv administered q2d for 4 days; type: functional
[11] = Cell cycle arrest in human H1299 cells assessed as accumulation of sub-G1 phase cells after 24 to 48 hrs by propidium iodidee-based flow cytometry; type: functional; details: NCI-H1299
Mus musculus [12] = assay: Toxicity in athymic nude mouse assessed as weight loss at 20 mg/kg, iv administered q2d for 3 days followed by 25 mg/kg, iv q2d for 4 days; type: organism-based; details: in vivo
[13] = Cell cycle arrest in human H1299 cells assessed as accumulation of G2/M phase cells after 24 to 48 hrs by propidium iodidee-based flow cytometry; type: functional; details: NCI-H1299
Mus musculus [14] = assay: Toxicity in athymic nude mouse assessed as weight loss at 30 mg/kg, iv administered q2d for 4 days; type: organism-based; design: dose 30 mg/kg, route intravenous; details: in vivo, 96 h
Mus musculus [15] = assay: Toxicity in athymic nude mouse assessed as weight loss at 10 mg/kg, iv administered q2d for 4 days; type: organism-based; design: dose 10 mg/kg, route intravenous; details: in vivo, 96 h
[16] = Cell cycle arrest in human H1299 cells assessed as reduction in G1 phase cells after 24 to 48 hrs by propidium iodidee-based flow cytometry; type: functional; details: NCI-H1299
[17] = Cell cycle arrest in human H1299 cells assessed as accumulation of G1 phase cells at 25 uM at 48 hrs by propidium iodideee-based flow cytometry; type: functional; details: NCI-H1299
[18] = Cell cycle arrest in human H1299 cells assessed as reduction in G1 phase cells at 25 uM at 24 hrs by propidium iodideee-based flow cytometry; type: functional; details: NCI-H1299
MX1 [19] = assay: Antitumor activity against human MX1 cells xenografted in athymic nude mouse assessed as tumor suppression at 10 mg/kg, iv administered q2d for 4 days; type: functional

SMILES | IC50 (CCRF-CEM [1]) [nM] | Ratio IC50 (CCRF-CEM [2]) | Ratio IC50 (CCRF-CEM [3]) | IC50 [4] [nM] | IC50 (CCRF-CEM [5]) [nM] | IC50 [6] [nM] | IC50 (CCRF-CEM [7]) [nM] | IC50 [8] [nM] | IC50 (PC-3) [nM] | other results
CC(C)NC(=O)OCc1c(COC(=O)NC(C)C)c2sc3ccccc3n2c1-c1ccc(Cl)c(Cl)c1 | 2290 |  |  |  |  |  |  |  |  | 
CC[C@]1(O)C[C@@H]2CN(CCc3c([nH]c4ccccc34)[C@@](C(=O)OC)(c3cc4c(cc3OC)N(C)[C@H]3[C@@](O)(C(=O)OC)[C@H](OC(C)=O)[C@]5(CC)C=CCN6CC[C@]43[C@@H]65)C2)C1 [VINBLASTINE] |  | 680 | 106 |  |  |  |  |  |  | 
COc1ccc(-c2c(CO)c(CO)c3sc4ccccc4n23)cc1 | 1130 | 2.3 | 1.9 | 5000 | 2630 | 18100 | 2170 | 9940 | 8810 | Activity (Nucleic Acid): Active
OCc1c(CO)c2sc3ccccc3n2c1-c1ccc(F)c(Cl)c1 | 3090 |  |  |  |  |  |  |  |  | 
CC(C)NC(=O)OCc1c(COC(=O)NC(C)C)c2sc3ccccc3n2c1-c1ccc(F)c(Cl)c1 | 500 |  |  |  |  |  |  |  |  | 
COc1ccc(-c2c(COC(=O)NC(C)C)c(COC(=O)NC(C)C)c3sc4ccccc4n23)cc1 | 140 | 1.47 | 1.17 | 7230 | 250 | 60900 | 170 | 8190 | 17500 | Activity (Nucleic Acid): Active
COc1cc(-c2c(CO)c(CO)c3sc4ccccc4n23)cc(OC)c1OC | 4030 |  |  |  |  |  |  |  |  | 
CCNC(=O)OCc1c(COC(=O)NCC)c2sc3ccccc3n2c1C1CC1 | 170 | 3.18 | 4.01 | 26300 | 540 | 74500 | 680 | 20600 | 24200 | 
CC(=O)O[C@H]1C(=O)[C@@]2(C)[C@H]([C@H](OC(=O)c3ccccc3)[C@]3(O)C[C@H](OC(=O)[C@H](O)[C@@H](NC(=O)c4ccccc4)c4ccccc4)C(C)=C1C3(C)C)[C@]1(OC(C)=O)CO[C@@H]1C[C@@H]2O [PACLITAXEL] |  | 980 | 358 |  |  |  |  |  |  | 
CCNC(=O)OCc1c(COC(=O)NCC)c2sc3ccccc3n2c1-c1ccc(F)c(Cl)c1 | 380 |  |  |  |  |  |  |  |  | 
OCc1c(CO)c2sc3ccccc3n2c1-c1ccc(F)cc1 | 1060 | 3.5 | 2.41 | 6030 | 3720 | 15500 | 2560 | 9270 | 13800 | Activity (Nucleic Acid): Active; IC50 (MX1 [9]): 2770 nM; IC50 (HCT-116): 9590 nM
CCNC(=O)OCc1c(COC(=O)NCC)c2sc3ccccc3n2c1-c1cc(OC)c(OC)c(OC)c1 | 320 |  |  |  |  |  |  |  |  | 
COc1ccc(-c2c(CO)c(CO)c3sc4ccccc4n23)cc1OC | 1820 |  |  |  |  |  |  |  |  | 
OCc1c(CO)c2sc3ccccc3n2c1C1CC1 | 970 | 2.51 | 2.37 | 7120 | 2440 | 28700 | 2310 | 13300 | 10700 | 
CCNC(=O)OCc1c(COC(=O)NCC)c2sc3ccccc3n2c1-c1ccc(Cl)cc1 | 210 | 1.85 | 1.52 | 11600 | 390 | 26000 | 320 | 4330 | 13800 | Activity (MX1 [10]): >99%; Activity [11]: Active; Activity (Mus musculus [12]): 20%; Activity [13]: Active; Activity (Mus musculus [14]): 20%; Activity (Nucleic Acid): Active; IC50 (MX1 [9]): 910 nM; Activity (Mus musculus [15]): 20%; IC50 (HCT-116): 700 nM; Activity [16]: Dose-dependent effect
OCc1c(CO)c2sc3ccccc3n2c1-c1ccc(Cl)cc1 | 2610 | 1.56 | 2 | 14600 | 4090 | 20700 | 5220 | 12400 | 20400 | Activity [17]: Active; Activity [18]: Active; Activity (Nucleic Acid): Active; IC50 (MX1 [9]): 10400 nM; IC50 (HCT-116): 9260 nM

SMILES | IC50 (CCRF-CEM [1]) [nM] | Ratio IC50 (CCRF-CEM [2]) | Ratio IC50 (CCRF-CEM [3]) | IC50 [4] [nM] | IC50 (CCRF-CEM [5]) [nM] | IC50 [6] [nM] | IC50 (CCRF-CEM [7]) [nM] | IC50 [8] [nM] | IC50 (PC-3) [nM] | other results
OCc1c(CO)c2sc3ccccc3n2c1-c1ccc(Cl)c(Cl)c1 | 1040 |  |  |  |  |  |  |  |  | 
CC(C)NC(=O)OCc1c(COC(=O)NC(C)C)c2sc3ccccc3n2c1C1CC1 | 100 | 9 | 7.3 | 9670 | 900 | 45500 | 730 | 20400 | 13400 | 
Cc1c(CO)c(CO)c2sc3ccccc3n12 | 970 | 1.91 | 1.93 |  | 1860 |  | 1880 |  |  | IC50 (MX1 [9]): 7100 nM; IC50 (HCT-116): 4440 nM
Cc1c(COC(=O)NC(C)C)c(COC(=O)NC(C)C)c2sc3ccccc3n12 | 130 | 1.92 | 1.69 |  | 250 |  | 220 | 9700 |  | IC50 (MX1 [9]): 130 nM; IC50 (HCT-116): 970 nM
COc1ccc(-c2c(COC(=O)NC(C)C)c(COC(=O)NC(C)C)c3sc4ccccc4n23)cc1OC | 110 |  |  |  |  |  |  |  |  | 
CCNC(=O)OCc1c(COC(=O)NCC)c2sc3ccccc3n2c1-c1ccc(F)cc1 | 70 | 6.42 | 5.42 | 11500 | 450 | 29200 | 380 | 13600 | 23700 | Activity (Mus musculus [12]): 20%; Activity (Mus musculus [14]): 20%; Activity (Nucleic Acid): Active; Activity (MX1 [19]): >99%; IC50 (MX1 [9]): 480 nM; Activity (Mus musculus [15]): 20%; IC50 (HCT-116): 520 nM
CCNC(=O)OCc1c(COC(=O)NCC)c2sc3ccccc3n2c1-c1ccc(OC)cc1 | 190 | 2.2 | 1.9 | 9390 | 420 | 29500 | 370 | 8850 | 17900 | Activity (Nucleic Acid): Active
OCc1c(CO)c2sc3ccccc3n2c1-c1ccc(F)c(F)c1 | 190 | 1.47 | 1 | 8480 | 280 | 17400 | 190 | 21400 | 15200 | 
CC(C)NC(=O)OCc1c(COC(=O)NC(C)C)c2sc3ccccc3n2c1-c1ccc(F)cc1 | 50 | 3.8 | 3.2 | 11900 | 190 | 53500 | 160 | 33000 | 24200 | Activity (Mus musculus [12]): 20%; Activity (Mus musculus [14]): 20%; Activity (Nucleic Acid): Active; IC50 (MX1 [9]): 620 nM; Activity (Mus musculus [15]): 20%; IC50 (HCT-116): 350 nM
CCNC(=O)OCc1c(COC(=O)NCC)c2sc3ccccc3n2c1-c1ccc(F)c(F)c1 | 210 | 1.47 | 1.61 | 14600 | 310 | 38500 | 340 | 10300 | 19300 | IC50 (MX1 [9]): 1490 nM; IC50 (HCT-116): 1100 nM
CCNC(=O)OCc1c(COC(=O)NCC)c2sc3ccccc3n2c1C | 330 | 1.3 | 1.3 |  | 430 |  | 450 |  |  | 
CC(C)NC(=O)OCc1c(COC(=O)NC(C)C)c2sc3ccccc3n2c1-c1ccc(F)c(F)c1 | 330 | 0.9 | 0.57 | 15100 | 300 | 74800 | 190 | 30800 | 29600 | IC50 (MX1 [9]): 1000 nM; IC50 (HCT-116): 410 nM
COc1cc(-c2c(COC(=O)NC(C)C)c(COC(=O)NC(C)C)c3sc4ccccc4n23)cc(OC)c1OC | 1050 |  |  |  |  |  |  |  |  | 
CCNC(=O)OCc1c(COC(=O)NCC)c2sc3ccccc3n2c1-c1ccc(Cl)c(Cl)c1 | 380 |  |  |  |  |  |  |  |  | 
CCNC(=O)OCc1c(COC(=O)NCC)c2sc3ccccc3n2c1-c1ccc(OC)c(OC)c1 | 490 |  |  |  |  |  |  |  |  | 

— ChEMBL document CHEMBL2034957, “Synthesis and antitumor evaluation of novel benzo[d]pyrrolo[2,1-b]thiazole derivatives” (Eur J Med Chem, 2012)
